The record followed here is ChEMBL document CHEMBL1122068, “Species- or isozyme-specific enzyme inhibitors. 5. Differential effects of thymidine substituents on affinity for rat thymidine kinase isozymes” (J Med Chem, 1982).

Assay [1] addresses T1, Thymidine kinase 2 (Rattus norvegicus) (UniProt D3ZGQ2).
T1 sequence (whole entry): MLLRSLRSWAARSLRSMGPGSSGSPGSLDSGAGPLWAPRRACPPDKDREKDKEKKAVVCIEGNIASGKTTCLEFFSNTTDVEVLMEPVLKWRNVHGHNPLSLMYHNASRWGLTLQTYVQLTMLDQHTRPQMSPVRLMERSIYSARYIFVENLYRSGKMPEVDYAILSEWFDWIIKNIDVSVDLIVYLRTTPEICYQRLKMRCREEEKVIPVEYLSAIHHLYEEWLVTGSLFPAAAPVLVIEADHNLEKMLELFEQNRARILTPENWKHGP
In words: Ability to inhibit rat mitochondrial thymidine kinase. Conditions: concentration not given here. Set-up: concentration or dose not given beside the values.

Assay [2] deals with T2, Thymidine kinase, cytosolic (Rattus norvegicus) (UniProt P27158).
T2 sequence (whole entry): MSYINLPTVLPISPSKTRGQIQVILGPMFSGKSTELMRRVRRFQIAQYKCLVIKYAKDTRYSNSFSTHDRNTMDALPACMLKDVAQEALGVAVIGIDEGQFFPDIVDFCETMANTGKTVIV
In words: Ability to inhibit rat cytoplasmic Thymidine kinase. Also noted: concentration or dose not given beside the values. Conditions: concentration not given here.

A further assay addresses T3, Thymidine kinase 2 (Rattus norvegicus, UniProt D3ZGQ2).
T3 sequence (D3ZGQ2 whole entry): T1 sequence (whole entry)
In words: Competitive inhibition against rat mitochondrial thymidine kinase.

The species entered for another assay is Rattus norvegicus. The assay can be described thus: Differential affinity is the ratio between M-TK and C-TK.
The target in assay [3] is T2, Thymidine kinase, cytosolic (Rattus norvegicus). The assay can be described thus: Affinity towards cytoplasmic Thymidine kinase relative ot TdR.
For assay [4], the target named is T1, Thymidine kinase 2 (Rattus norvegicus). The assay can be described thus: Affinity towards mitochondrial thymidine kinase relative to TdR.
For assay [5], the target named is T4, Thymidine kinase, cytosolic (Rattus norvegicus, UniProt P27158).
T4 sequence (P27158 whole entry): T2 sequence (whole entry)
In words: Competitive inhibition against rat cytoplasmic Thymidine kinase.

In assay [6] the target is T4, Thymidine kinase, cytosolic. In words: Affinity towards cytoplasmic Thymidine kinase relative ot TdR; expressed as KM (TdR)/Ki.
Assay [7] shares this target. The assay can be described thus: (§1) Competitive inhibition against rat cytoplasmic thymidine kinase.
The target in assay [8] is T2, Thymidine kinase, cytosolic (Rattus norvegicus). The assay is described as §1. Set-up: concentration or dose not given beside the values. Conditions: concentration not given here.
Assay [9] shares this target. In words: Affinity towards cytoplasmic thymidine kinase relative ot TdR; expressed as KM (TdR)/Ki.

Structures are written as SMILES.

One may read the inhibition as how much of the control response was suppressed. As for `Nc1ccn([C@@H]2O[C@H](CO)[C@@H](O)[C@H]2O)c(=O)n1`, the inhibition in assay [1] came out at 13%; in [2], 1%.
The term Ki denotes the equilibrium dissociation constant of an inhibitor or competing ligand from its target. In the case of `Cc1cn([C@H]2CC[C@@H](CO)O2)c(=O)[nH]c1=O`, the values for the inhibition constant Ki (on Thymidine kinase 2; in assay [5]) were 880 µM and 400 µM, respectively. Further, in the assay filed under Rattus norvegicus, the Differential affinity is 2.3. The figures for the Relative affinity in [3] and in [4] were 0.004 and 0.0091, respectively.
As to `CCNc1ccn([C@H]2C[C@H](O)[C@@H](CO)O2)c(=O)n1`, the inhibition came to 5% in assay [1] and 7% in assay [2].
For the compound `Cc1cn(C2CC(O)C(CSCCCC(=O)O)O2)c(=O)[nH]c1=O` (stereo unspecified), the inhibition in assay [1] was 36%; in assay [2], 48%. Moreover, affinity in [6] was put at a Ki of 3600 µM.
For the compound `Cc1cn([C@H]2C[C@H](O)[C@@H](CO)O2)c(=O)n(Cc2ccccc2)c1=O`, the inhibition in [1] came out at 10%. The Differential affinity in the assay filed under Rattus norvegicus was found to be 0.04. Further, the figures for the Relative affinity in assay [3] and in [4] were 0.05 and greater than 0.002, respectively. Besides, in assay [7], the inhibitory constant (Ki) came out at 320 µM.
For the compound `Nc1ccn([C@H]2C[C@H](O)[C@@H](CO)O2)c(=O)n1` [DOXECITINE], the inhibition is 58% in assay [1] and 7% in assay [2]. The same compound gave a Ki at Thymidine kinase 2 of 320 µM. This compound showed a Relative affinity in assay [4] of 0.025.
For the compound `CC(=O)NC1CC(n2cc(C)c(=O)[nH]c2=O)OC1CO` (stereo unspecified), the Differential affinity in the assay listed under Rattus norvegicus is less than 4.8.
In the case of `Cc1cn([C@H]2C[C@H](N)[C@@H](CO)O2)c(=O)[nH]c1=O` [3-AMINO- 3-DEOXYTHYMIDINE], the Ki on Thymidine kinase 2 turned out to be 2600 µM; in [5] it was 380 µM. Also, the Differential affinity in the assay listed under Rattus norvegicus turned out to be 0.74. The Relative affinity in assay [3] is 0.0042; in assay [4] it was 0.0031.
In turn, `CCOC1N([C@H]2C[C@H](O)[C@@H](CO)O2)C(=O)NC(=O)C1(C)Br` (stereo in doubt; 4b) [listing 1 of 2 here] came in with an inhibition constant (Ki) in [5] of 2 µM.
For `Cc1cn(C2CC(O)C(CSCCC(=O)O)O2)c(=O)[nH]c1=O` (stereo unspecified), the inhibition is 25% in assay [1] and 40% in [2].
Turning to `Nc1cn([C@H]2C[C@H](O)[C@@H](CO)O2)c(=O)[nH]c1=O`, the Ki on Thymidine kinase 2 was found to be 72 µM; in assay [5] it was 370 µM. For the same compound, in the assay listed under Rattus norvegicus, the Differential affinity came to 26. The Relative affinity is 0.0043 in [3] and 0.11 in assay [4].
Turning to `CC1CN([C@H]2C[C@H](O)[C@@H](CO)O2)C(=O)NC1=O` (stereo partly specified), the results for the inhibition in assay [1] and in assay [8] were 83% and 53%, respectively. The compound also displayed an inhibitory constant (Ki) on Thymidine kinase 2 of 77 µM. In assay [4], the Relative affinity turned out to be 0.1.
Take `CC[S+]([O-])CC1OC(n2cc(C)c(=O)[nH]c2=O)CC1O` (stereo unspecified): the inhibition in [1] was 7%; in [8], 4%.
Regarding `Cc1cn([C@H]2C[C@H](O)[C@@H](CO)O2)c(=O)nc1N`, in the assay listed under Rattus norvegicus, the Differential affinity was 7.9. The Relative affinity turned out to be 0.00076 in [3] and 0.006 in [4]. For the same compound, the inhibition constant Ki in [5] came to 2100 µM.
Take `CC(=O)Nc1cn([C@H]2C[C@H](O)[C@@H](CO)O2)c(=O)[nH]c1=O`: the inhibition in assay [1] is 11%; in [2], 0%.
As for `Cc1cn([C@H]2C[C@H](O)[C@@H](CN)O2)c(=O)[nH]c1=O`, the inhibitory constant (Ki) on Thymidine kinase 2 was found to be 4600 µM; in assay [5] it was 2.4 µM. Also, the Differential affinity in the assay filed under Rattus norvegicus came to 0.0025. Also, the Relative affinity in [3] was 0.67; in [4], 0.0017.
For the compound `Cn1c(=O)ccn([C@H]2C[C@H](O)[C@@H](CO)O2)c1=O`, the values for the inhibition in [1] and in [8] were 4% and 62%, respectively.
On to `O=c1ccn([C@H]2C[C@H](O)[C@@H](CO)O2)c(=O)[nH]1`, for which the values for the inhibition in assay [1] and in assay [2] were 74% and 90%, respectively.
Regarding `CCNCC1OC(n2cc(C)c(=O)[nH]c2=O)CC1O` (stereo unspecified), the Ki worked out at 1440 µM at Thymidine kinase 2 and 40 µM in assay [5]. Further, in the assay filed under Rattus norvegicus, the Differential affinity is 0.14. The figures for the Relative affinity in [3] and in assay [4] were 0.04 and 0.0056, respectively.
`NCc1cn([C@H]2C[C@H](O)[C@@H](CO)O2)c(=O)[nH]c1=O`: the inhibition in [1] is 3%; in [2], 30%.
Turning to `CCCCCCNCC1OC(n2cc(C)c(=O)[nH]c2=O)CC1O` (stereo unspecified), the results for the Ki (at Thymidine kinase 2; in assay [5]) were 960 µM and 35 µM, respectively. Also, the Differential affinity in the assay listed under Rattus norvegicus came out at 0.18. The results for the Relative affinity in assay [3] and in assay [4] were 0.046 and 0.0083, respectively.
The like results for `CSc1cn([C@H]2C[C@H](O)[C@@H](CO)O2)c(=O)[nH]c1=O` were, in that order, 250 µM, 50 µM, 1, 0.032 and 0.032.
Consider `Cc1cn([C@H]2C[C@H](O)[C@@H](CO)O2)c(=O)n(C)c1=O`, for which the Differential affinity in the assay listed under Rattus norvegicus is less than 0.022.
For the compound `CCCCCn1c(=O)c(C)cn([C@H]2C[C@H](O)[C@@H](CO)O2)c1=O`, the Ki on Thymidine kinase 2 came out at 1100 µM; in [5], 36 µM. Also, the Differential affinity in the assay filed under Rattus norvegicus was determined as 0.17. In addition, the Relative affinity in [3] turned out to be 0.044; in assay [4], 0.0073.
With `Nc1nc(=O)n([C@H]2C[C@H](O)[C@@H](CO)O2)cc1I` [IBACITABINE], the inhibition constant Ki in assay [5] is 11400 µM.
As for `CO[C@H]1C[C@H](n2ccc(N)nc2=O)O[C@@H]1CO`, the inhibition came out at 24% in [1] and 3% in assay [8].
With `C/C=C/c1cn([C@H]2C[C@H](O)[C@@H](CO)O2)c(=O)[nH]c1=O`, the Ki in assay [5] is 15500 µM.
As for `CCOC1N([C@H]2C[C@H](O)[C@@H](CO)O2)C(=O)NC(=O)C1(C)Br` (stereo in doubt; 4c) [listing 1 of 2 here], in the assay listed under Rattus norvegicus, the Differential affinity amounted to 1.8. Also, the Relative affinity in [3] worked out at 0.41; in assay [4], 0.73.
Turning to `Cc1cn([C@H]2C=C[C@@H](CO)O2)c(=O)[nH]c1=O` [STAVUDINE], the Ki on Thymidine kinase 2 is 3250 µM. Besides, the Differential affinity in the assay listed under Rattus norvegicus came out at 2.7.
Regarding `CC(=O)NCC1OC(n2cc(C)c(=O)[nH]c2=O)CC1O` (stereo unspecified), the inhibition is 19% in assay [1] and 20% in assay [2].
In the case of `CCC(=O)O[C@H]1C[C@H](n2ccc(N)nc2=O)O[C@@H]1CO`, the inhibition worked out at 19% in assay [1] and 8% in assay [8].
With `Cc1cn(C2CC(O)C(CSCCO)O2)c(=O)[nH]c1=O` (stereo unspecified), the inhibition stood at 22% in assay [1] and 49% in [2]. In [3], this compound yielded a Relative affinity of 0.002. In assay [5], this compound yielded a Ki of 820 µM.
In the case of `CCOC1N([C@H]2C[C@H](O)[C@@H](CO)O2)C(=O)NC(=O)C1(C)Br` (stereo in doubt; 4b) [listing 2 of 2 here], the Differential affinity in the assay filed under Rattus norvegicus was 0.91. For the same compound, the Relative affinity in assay [3] was 0.8; in assay [4], 0.73.
As to `CCCCNCC1OC(n2cc(C)c(=O)[nH]c2=O)CC1O` (stereo unspecified), the values for the inhibition in [1] and in assay [2] were 53% and 95%, respectively.
Regarding `CCOC1N([C@H]2C[C@H](O)[C@@H](CO)O2)C(=O)NC(=O)C1(C)Br` (stereo in doubt; 4c) [listing 2 of 2 here], the Ki at Thymidine kinase 2 amounted to 11 µM; in assay [5], 3.9 µM.
Consider `Cc1cn([C@H]2C[C@H](OCc3ccccc3)[C@@H](CO)O2)c(=O)[nH]c1=O`, for which the values for the inhibition constant Ki (at Thymidine kinase 2; in assay [7]) were 8 µM and 12 µM, respectively. Further, the Differential affinity in the assay filed under Rattus norvegicus amounted to 7.5. The figures for the Relative affinity in [3] and in [4] were 0.133 and 1, respectively.
In the case of `CCSC1CC(n2cc(C)c(=O)[nH]c2=O)OC1CO` (stereo unspecified), the inhibition constant (Ki) turned out to be 62 µM on Thymidine kinase 2 and 24 µM in assay [5]. For the same compound, the Differential affinity in the assay listed under Rattus norvegicus turned out to be 1.9. In addition, the results for the Relative affinity in assay [3] and in assay [4] were 0.067 and 0.13, respectively.
On to `O=c1ccn([C@@H]2O[C@H](CO)[C@@H](O)[C@H]2O)c(=O)[nH]1`, for which the inhibition in [1] and in [2] was 4% in each case.
As to `CCO[C@H]1C[C@H](n2cc(C)c(=O)[nH]c2=O)O[C@@H]1CO`, the Relative affinity in assay [9] came out at 0.044; in assay [4], 0.14. The Differential affinity in the assay filed under Rattus norvegicus stood at 3.2. Also, affinity in [7] was put at a Ki of 36 µM.
For `CCSCC1OC(n2cc(C)c(=O)[nH]c2=O)CC1O` (stereo unspecified), the inhibition in assay [1] was found to be 22%; in assay [2] it was 11%.
